Laboratory results: ChEMBL document CHEMBL1671651, “Azithromycin in Pseudomonas aeruginosa biofilms: bactericidal activity and selection of nfxB mutants” (2009)
≈ marks a conversion by molar mass, not a printed value.

Key:
Type in all cases: functional
Pseudomonas aeruginosa [1] = assay: Antimicrobial activity against mucA::lox-deficient Pseudomonas aeruginosa PAOMAB biofilm harboring nfxB G125T mutant gene selected at 0.5 ug/ml of azithromycin after 1 passages by Etest method
Pseudomonas aeruginosa [2] = assay: Antimicrobial activity against mutS::lox-deficient Pseudomonas aeruginosa PAOMSA biofilm harboring nfxB T86C mutant gene selected at 4 ug/ml of azithromycin after 4 passages by Etest method
Pseudomonas aeruginosa [3] = assay: Antimicrobial activity against mutS::lox-deficient Pseudomonas aeruginosa PAOMSB biofilm harboring nfxB T380C mutant gene selected at 0.5 ug/ml of azithromycin after 2 passages by Etest method
Pseudomonas aeruginosa [4] = assay: Antimicrobial activity against mutS::lox-deficient Pseudomonas aeruginosa PAOMSA biofilm harboring nfxB C116T mutant gene selected at 1 ug/ml of azithromycin after 1 passages by Etest method
Pseudomonas aeruginosa [5] = assay: Antimicrobial activity against mucA::lox, mutS::lox-deficient Pseudomonas aeruginosa PAOMSAB biofilm harboring nfxB C25T mutant gene selected at 1 ug/ml of azithromycin after 2 passages by Etest method
Pseudomonas aeruginosa [6] = assay: Antimicrobial activity against mutS::lox-deficient Pseudomonas aeruginosa PAOMSB biofilm harboring nfxB T41C mutant gene selected at 4 ug/ml of azithromycin after 3 passages by Etest method
Pseudomonas aeruginosa [7] = assay: Antimicrobial activity against mutS::lox-deficient Pseudomonas aeruginosa PAOMSA biofilm harboring nfxB G461A mutant gene selected at 4 ug/ml of azithromycin after 5 passages by Etest method
Pseudomonas aeruginosa [8] = assay: Antimicrobial activity against mucA::lox, mutS::lox-deficient Pseudomonas aeruginosa PAOMSAA biofilm harboring nfxB C89T mutant gene selected at 4 ug/ml of azithromycin after 6 passages by Etest method
Pseudomonas aeruginosa [9] = assay: Antimicrobial activity against mutS::lox-deficient Pseudomonas aeruginosa PAOMSB biofilm harboring deletion od C534 in nfxB mutant gene selected at 4 ug/ml of azithromycin after 2 passages by Etest method
Pseudomonas aeruginosa [10] = assay: Antimicrobial activity against mucA::lox, mutS::lox-deficient Pseudomonas aeruginosa PAOMSAA biofilm harboring nfxB T86C mutant gene selected at 4 ug/ml of azithromycin after 2 passages by Etest method
Pseudomonas aeruginosa [11] = assay: Antimicrobial activity against mucA::lox, mutS::lox-deficient Pseudomonas aeruginosa PAOMSA biofilm by Etest method
Pseudomonas aeruginosa [12] = assay: Antimicrobial activity against Pseudomonas aeruginosa PAO1 A biofilm harboring nfxB T248C mutant gene selected at 4 ug/ml of azithromycin after 4 passages by Etest method
Pseudomonas aeruginosa [13] = assay: Antimicrobial activity against Pseudomonas aeruginosa PAO1 A biofilm harboring duplication mutation at nucleotide 333 in nfxB gene selected at 0.5 ug/ml of azithromycin by Etest method
Pseudomonas aeruginosa [14] = assay: Antimicrobial activity against mucA::lox, mutS::lox-deficient Pseudomonas aeruginosa PAOMSAB biofilm harboring nfxB C89T mutant gene selected at 4 ug/ml of azithromycin after 6 passages by Etest method
Pseudomonas aeruginosa [15] = assay: Antimicrobial activity against mucA::lox, mutS::lox-deficient Pseudomonas aeruginosa PAOMSAB biofilm harboring nfxB T544C mutant gene selected at 4 ug/ml of azithromycin after 1 passages by Etest method
Pseudomonas aeruginosa [16] = assay: Antimicrobial activity against mucA::lox, mutS::lox-deficient Pseudomonas aeruginosa PAOMSAA biofilm harboring nfxB C89T mutant gene selected at 0.5 ug/ml of azithromycin after 3 passages by Etest method
Pseudomonas aeruginosa [17] = assay: Antimicrobial activity against mucA::lox, mutS::lox-deficient Pseudomonas aeruginosa PAOMSAA biofilm harboring nfxB T77C mutant gene selected at 4 ug/ml of azithromycin after 3 passages by Etest method
Pseudomonas aeruginosa [18] = assay: Antimicrobial activity against mucA::lox-deficient Pseudomonas aeruginosa PAOMA biofilm by Etest method
Pseudomonas aeruginosa [19] = assay: Antimicrobial activity against mucA::lox-deficient Pseudomonas aeruginosa PAOMAA biofilm harboring nfxB C25T mutant gene selected at 1 ug/ml of azithromycin after 2 passages by Etest method
Pseudomonas aeruginosa [20] = assay: Antimicrobial activity against mutS::lox-deficient Pseudomonas aeruginosa PAOMSA biofilm harboring nfxB G539A mutant gene selected at 4 ug/ml of azithromycin after 6 passages by Etest method
Pseudomonas aeruginosa [21] = assay: Antimicrobial activity against Pseudomonas aeruginosa PAO1 biofilm by Etest method
Pseudomonas aeruginosa [22] = assay: Antimicrobial activity against mutS::lox-deficient Pseudomonas aeruginosa PAOMSA biofilm harboring nfxB T86C mutant gene selected at 4 ug/ml of azithromycin after 3 passages by Etest method
Pseudomonas aeruginosa [23] = assay: Antimicrobial activity against mutS::lox-deficient Pseudomonas aeruginosa PAOMSA biofilm harboring nfxB T533C mutant gene selected at 4 ug/ml of azithromycin after 2 passages by Etest method
Pseudomonas aeruginosa [24] = assay: Antimicrobial activity against mutS::lox-deficient Pseudomonas aeruginosa PAOMS biofilm by Etest method
Pseudomonas aeruginosa [25] = assay: Antimicrobial activity against nfxB gene-deficient Pseudomonas aeruginosa PAONB biofilm by Etest method
Pseudomonas aeruginosa [26] = assay: Antimicrobial activity against mutS::lox-deficient Pseudomonas aeruginosa PAOMSB biofilm harboring nfxB T562C mutant gene selected at 4 ug/ml of azithromycin after 4 passages by Etest method
Pseudomonas aeruginosa [27] = assay: Antimicrobial activity against mutS::lox-deficient Pseudomonas aeruginosa PAOMSB biofilm harboring nfxB C116T mutant gene selected at 4 ug/ml of azithromycin after 5 passages by Etest method
Pseudomonas aeruginosa [28] = assay: Antimicrobial activity against mutS::lox-deficient Pseudomonas aeruginosa PAOMSB biofilm harboring nfxB T77C mutant gene selected at 4 ug/ml of azithromycin after 6 passages by Etest method
Pseudomonas aeruginosa [29] = assay: Antimicrobial activity against mucA::lox, mutS::lox-deficient Pseudomonas aeruginosa PAOMSAB biofilm harboring nfxB T86C mutant gene selected at 4 ug/ml of azithromycin after 2 passages by Etest method
Pseudomonas aeruginosa [30] = assay: Antimicrobial activity against mexD::lox-deficient Pseudomonas aeruginosa PAOMxD biofilm by Etest method
Pseudomonas aeruginosa [31] = assay: Antimicrobial activity against Pseudomonas aeruginosa PAO1 A biofilm harboring deletion mutation at nucleotide 231-244 in nfxB gene selected at 1 ug/ml of azithromycin after 4 passages by Etest method
Pseudomonas aeruginosa [32] = assay: Antimicrobial activity against mutS::lox,mexD::lox-deficient Pseudomonas aeruginosa PAOMSMxD biofilm by Etest method
Pseudomonas aeruginosa [33] = assay: Antimicrobial activity against mutS::lox,nfxB gene-deficient Pseudomonas aeruginosa PAOMSNB biofilm by Etest method

SMILES | MIC (Pseudomonas aeruginosa [1]) [µg/mL] | MIC (Pseudomonas aeruginosa [2]) [µg/mL] | MIC (Pseudomonas aeruginosa [3]) [µg/mL] | MIC (Pseudomonas aeruginosa [4]) [µg/mL] | MIC (Pseudomonas aeruginosa [5]) [µg/mL] | MIC (Pseudomonas aeruginosa [6]) [µg/mL] | MIC (Pseudomonas aeruginosa [7]) [µg/mL] | MIC (Pseudomonas aeruginosa [8]) [µg/mL] | MIC (Pseudomonas aeruginosa [9]) [µg/mL] | MIC (Pseudomonas aeruginosa [10]) [µg/mL] | MIC (Pseudomonas aeruginosa [11]) [µg/mL] | MIC (Pseudomonas aeruginosa [12]) [µg/mL] | MIC (Pseudomonas aeruginosa [13]) [µg/mL] | MIC (Pseudomonas aeruginosa [14]) [µg/mL] | MIC (Pseudomonas aeruginosa [15]) [µg/mL] | MIC (Pseudomonas aeruginosa [16]) [µg/mL] | MIC (Pseudomonas aeruginosa [17]) [µg/mL] | MIC (Pseudomonas aeruginosa [18]) [µg/mL] | MIC (Pseudomonas aeruginosa [19]) [µg/mL] | MIC (Pseudomonas aeruginosa [20]) [µg/mL] | also measured
C[C@H]1[C@H](NC(=O)/C(=N\OC(C)(C)C(=O)O)c2csc(N)n2)C(=O)N1S(=O)(=O)O [AZTREONAM] | 0.5 | 0.75 | 0.75 | 2 | 0.75 | 2 | 2 | 1 | 2 | 1 | 2 (≈ 4.59 µM) | 0.75 | 0.75 | 1 | 2 | 1 | 2 | 2 (≈ 4.59 µM) | 0.75 | 0.75 | MIC (Pseudomonas aeruginosa [21]): 2 µg/mL (≈ 4.59 µM); MIC (Pseudomonas aeruginosa [22]): 1 µg/mL; MIC (Pseudomonas aeruginosa [23]): 0.75 µg/mL; MIC (Pseudomonas aeruginosa [24]): 2 µg/mL (≈ 4.59 µM); MIC (Pseudomonas aeruginosa [25]): 0.5 µg/mL (≈ 1.15 µM); MIC (Pseudomonas aeruginosa [26]): 1.5 µg/mL; MIC (Pseudomonas aeruginosa [27]): 0.75 µg/mL; MIC (Pseudomonas aeruginosa [28]): 1 µg/mL; MIC (Pseudomonas aeruginosa [29]): 1 µg/mL; MIC (Pseudomonas aeruginosa [30]): 2 µg/mL (≈ 4.59 µM); MIC (Pseudomonas aeruginosa [31]): 0.5 µg/mL; MIC (Pseudomonas aeruginosa [32]): 2 µg/mL (≈ 4.59 µM); MIC (Pseudomonas aeruginosa [33]): 1 µg/mL (≈ 2.3 µM)
CO/N=C(\C(=O)N[C@@H]1C(=O)N2C(C(=O)[O-])=C(C[N+]3(C)CCCC3)CS[C@H]12)c1csc(N)n1 [CEFEPIME] | 12 | 6 | 12 | 12 | 8 | 8 | 8 | 16 | 12 | 16 | 1.5 (≈ 3.12 µM) | 12 | 12 | 16 | 12 | 12 | 12 | 1.5 (≈ 3.12 µM) | 12 | 12 | MIC (Pseudomonas aeruginosa [21]): 1.5 µg/mL (≈ 3.12 µM); MIC (Pseudomonas aeruginosa [22]): 16 µg/mL; MIC (Pseudomonas aeruginosa [23]): 8 µg/mL; MIC (Pseudomonas aeruginosa [24]): 1.5 µg/mL (≈ 3.12 µM); MIC (Pseudomonas aeruginosa [25]): 8 µg/mL (≈ 16.6 µM); MIC (Pseudomonas aeruginosa [26]): 6 µg/mL; MIC (Pseudomonas aeruginosa [27]): 12 µg/mL; MIC (Pseudomonas aeruginosa [28]): 12 µg/mL; MIC (Pseudomonas aeruginosa [29]): 12 µg/mL; MIC (Pseudomonas aeruginosa [30]): 1.5 µg/mL (≈ 3.12 µM); MIC (Pseudomonas aeruginosa [31]): 12 µg/mL; MIC (Pseudomonas aeruginosa [32]): 1.5 µg/mL (≈ 3.12 µM); MIC (Pseudomonas aeruginosa [33]): 8 µg/mL (≈ 16.6 µM)
CC(C)(O/N=C(\C(=O)N[C@@H]1C(=O)N2C(C(=O)[O-])=C(C[n+]3ccccc3)CS[C@H]12)c1csc(N)n1)C(=O)O [CEFTAZIDIME] | 0.5 | 1.5 | 1 | 1 | 1 | 2 | 2 | 1.5 | 2 | 1.5 | 1.5 (≈ 2.74 µM) | 1.5 | 1.5 | 1.5 | 2 | 1.5 | 2 | 1.5 (≈ 2.74 µM) | 1 | 1.5 | MIC (Pseudomonas aeruginosa [21]): 1.5 µg/mL (≈ 2.74 µM); MIC (Pseudomonas aeruginosa [22]): 2 µg/mL; MIC (Pseudomonas aeruginosa [23]): 1.5 µg/mL; MIC (Pseudomonas aeruginosa [24]): 1.5 µg/mL (≈ 2.74 µM); MIC (Pseudomonas aeruginosa [25]): 1.5 µg/mL (≈ 2.74 µM); MIC (Pseudomonas aeruginosa [26]): 1.5 µg/mL; MIC (Pseudomonas aeruginosa [27]): 1.5 µg/mL; MIC (Pseudomonas aeruginosa [28]): 2 µg/mL; MIC (Pseudomonas aeruginosa [29]): 2 µg/mL; MIC (Pseudomonas aeruginosa [30]): 1.5 µg/mL (≈ 2.74 µM); MIC (Pseudomonas aeruginosa [31]): 1 µg/mL; MIC (Pseudomonas aeruginosa [32]): 1.5 µg/mL (≈ 2.74 µM); MIC (Pseudomonas aeruginosa [33]): 1.5 µg/mL (≈ 2.74 µM)
